Consider 18 compounds from ChEMBL document CHEMBL1150388, “Discovery of orally active pyrrolopyridine- and aminopyridine-based Met kinase inhibitors” (Bioorg Med Chem Lett, 2008).

Each structure is given as a SMILES string.

Data set [1] is described as follows: Antiproliferative activity against human GTL16 cells. It counts as functional, cell-based. Particulars: GTL 16.
Data set [2] addresses Hepatocyte growth factor receptor (Homo sapiens, UniProt P08581). Nature of the data set: Inhibition of Met kinase.
The target in the next data set is Cytochrome P450 3A4 (Homo sapiens, UniProt P08684). The data set can be described thus: Inhibition of human CYP3A4. In kind it is ADME.
Data set [3] can be described thus: Metabolic stability in mouse liver microsomes at 3 uM after 10 mins. In kind it is ADME, Microsome. (Liver microsomes are a subcellular fraction often used to study metabolism.)
The nature of data set [4]: AUC (0 to 8 hrs) in mouse at 50 mg/kg, po. It counts as ADME, organism-based. On the set-up: time < 8 hr, dose 50 mg/kg, route oral. Conditions: plasma.
The nature of data set [5]: Cmax in mouse at 50 mg/kg, po. It counts as ADME, organism-based. Further details: dose 50 mg/kg, route oral. Particulars: in vivo.
In the next data set the test system is Liver microsomes. Nature of the data set: Metabolic stability in human liver microsomes at 3 uM after 10 mins. In kind it is ADME, Microsome.
The nature of data set [6]: Tmax in mouse at 50 mg/kg, po. In kind it is ADME, organism-based. On the set-up: dose 50 mg/kg, route oral. Conditions: in vivo.
A short description of data set [7]: Protein binding in mouse plasma. It counts as ADME, cell-free. Particulars: read-out: PPB (converted).
Data set [8] in a line: Antitumor activity in human GTL16 cells xenografted athymic mouse 50 mg/kg, po daily once for 14 days. In kind it is functional. Conditions: GTL 16, 336 h, read-out: TGI. For orientation: A xenograft is tissue or cells of one species grown in another, often human tumour cells in immunodeficient mice.
A short description of data set [9]: AUC (0 to 4 hrs) in mouse at 50 mg/kg, po. In kind it is ADME, organism-based. Further details: time < 4 hr, dose 50 mg/kg, route oral. Particulars: plasma.
The nature of data set [10]: Antitumor activity in human GTL16 cells xenografted athymic mouse 100 mg/kg, po daily once for 14 days. In kind it is functional. Particulars: GTL 16, 336 h, read-out: TGI.
Data set [11] in a line: Antitumor activity in human GTL16 cells xenografted athymic mouse 125 mg/kg, po daily once for 14 days. It counts as functional. Conditions: GTL 16, 336 h, read-out: TGI.
Data set [12] can be described thus: Antitumor activity in human GTL16 cells xenografted athymic mouse 25 mg/kg, po daily once for 14 days. It counts as functional. Conditions: GTL 16, 336 h, read-out: TGI.
Data set [13] can be described thus: Antitumor activity in human GTL16 cells xenografted athymic mouse 75 mg/kg, po daily once for 14 days. It counts as functional. Particulars: GTL 16, 336 h, read-out: TGI.

Hepatocyte growth factor receptor, sequence (P08581 whole entry): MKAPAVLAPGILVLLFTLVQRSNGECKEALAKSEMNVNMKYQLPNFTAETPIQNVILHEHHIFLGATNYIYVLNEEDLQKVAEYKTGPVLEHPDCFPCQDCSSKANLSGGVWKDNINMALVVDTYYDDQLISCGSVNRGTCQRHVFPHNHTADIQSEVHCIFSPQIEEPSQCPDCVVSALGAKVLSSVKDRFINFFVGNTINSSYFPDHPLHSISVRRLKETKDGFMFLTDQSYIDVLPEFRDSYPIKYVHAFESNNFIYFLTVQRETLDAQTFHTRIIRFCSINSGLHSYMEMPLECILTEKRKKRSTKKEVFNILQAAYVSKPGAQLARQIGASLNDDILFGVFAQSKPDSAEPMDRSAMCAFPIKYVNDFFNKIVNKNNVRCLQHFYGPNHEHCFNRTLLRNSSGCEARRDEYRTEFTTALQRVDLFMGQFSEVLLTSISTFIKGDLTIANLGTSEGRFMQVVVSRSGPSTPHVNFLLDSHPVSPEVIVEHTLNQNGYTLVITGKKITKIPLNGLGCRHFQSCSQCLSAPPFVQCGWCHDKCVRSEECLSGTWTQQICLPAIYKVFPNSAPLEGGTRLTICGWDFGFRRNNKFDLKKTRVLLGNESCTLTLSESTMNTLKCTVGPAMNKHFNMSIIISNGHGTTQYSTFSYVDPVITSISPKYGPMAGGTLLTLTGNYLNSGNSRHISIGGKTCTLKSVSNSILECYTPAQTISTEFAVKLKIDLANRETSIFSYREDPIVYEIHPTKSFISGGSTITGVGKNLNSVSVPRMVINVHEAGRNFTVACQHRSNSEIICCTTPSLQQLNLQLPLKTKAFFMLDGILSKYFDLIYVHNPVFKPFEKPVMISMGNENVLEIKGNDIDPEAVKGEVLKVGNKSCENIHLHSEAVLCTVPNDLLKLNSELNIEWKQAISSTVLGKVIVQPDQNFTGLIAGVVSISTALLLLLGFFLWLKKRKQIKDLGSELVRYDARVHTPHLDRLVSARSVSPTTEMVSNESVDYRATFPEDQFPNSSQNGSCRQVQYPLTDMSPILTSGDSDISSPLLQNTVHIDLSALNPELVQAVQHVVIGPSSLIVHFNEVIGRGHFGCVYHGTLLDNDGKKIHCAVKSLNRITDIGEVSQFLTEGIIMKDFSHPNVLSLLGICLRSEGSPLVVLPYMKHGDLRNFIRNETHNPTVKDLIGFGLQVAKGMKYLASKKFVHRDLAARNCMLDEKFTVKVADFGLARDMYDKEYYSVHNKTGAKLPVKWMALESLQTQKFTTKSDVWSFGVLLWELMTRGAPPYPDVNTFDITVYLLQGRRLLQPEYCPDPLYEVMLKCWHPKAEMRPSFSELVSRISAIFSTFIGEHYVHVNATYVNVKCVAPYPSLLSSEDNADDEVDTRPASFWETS
Cytochrome P450 3A4, sequence (P08684 whole entry): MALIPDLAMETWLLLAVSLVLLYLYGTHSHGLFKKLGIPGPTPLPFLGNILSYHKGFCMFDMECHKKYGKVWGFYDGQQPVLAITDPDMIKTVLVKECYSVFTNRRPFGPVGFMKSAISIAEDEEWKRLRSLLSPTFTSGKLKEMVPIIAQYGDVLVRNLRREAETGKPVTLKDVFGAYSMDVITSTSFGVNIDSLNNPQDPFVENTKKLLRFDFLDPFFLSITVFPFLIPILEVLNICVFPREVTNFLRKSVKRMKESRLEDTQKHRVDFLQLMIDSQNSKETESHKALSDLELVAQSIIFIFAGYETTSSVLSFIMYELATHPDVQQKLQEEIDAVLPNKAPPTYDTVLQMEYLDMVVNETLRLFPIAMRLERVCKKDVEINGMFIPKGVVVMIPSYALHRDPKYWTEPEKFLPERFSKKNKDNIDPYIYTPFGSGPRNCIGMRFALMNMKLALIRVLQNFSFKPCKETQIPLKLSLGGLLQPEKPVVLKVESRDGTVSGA

For orientation: IC50 means the concentration needed to halve the response being measured. A low value points to greater potency in that assay. On to `Nc1cc(Oc2ccc(NC(=O)CC(=O)Nc3ccc(F)cc3)cc2F)ccn1`, for which the figures for the IC50 in data set [1] and in data set [2] were 1490 nM and 100 nM, respectively.

For `CN(C)CC(=O)c1c[nH]c2nccc(Oc3ccc(NC(=O)NC(=O)Cc4ccc(F)cc4)cc3F)c12`, the IC50 in data set [1] came out at 1050 nM; in [2], 44 nM.

`COC(=O)c1c[nH]c2nccc(Oc3ccc(NC(=O)NC(=O)Cc4ccc(F)cc4)cc3F)c12`: the IC50 came out at 180 nM in data set [1] and 5 nM in data set [2].

Consider `O=C(Cc1ccc(F)cc1)NC(=O)Nc1ccc(Oc2ccnc3[nH]cc(CO)c23)c(F)c1`, for which the IC50 in data set [1] turned out to be 180 nM; in data set [2] it was 4 nM.

In the case of `Nc1nccc(Oc2ccc(NC(=O)NC(=O)Cc3ccc(F)cc3)cc2F)c1C#CCO`, the results for the IC50 (against Cytochrome P450 3A4; in data set [1]; in data set [2]) were 700 nM, 30 nM and 3 nM, respectively.

What is called AUC(0-t) is exposure summed from dosing to a finite time, without extrapolation to infinity. A higher AUC(0-t) goes with high exposure. For orientation: Cmax means the peak of the concentration-time curve. One may read the Tmax as the time from dosing to the highest level. In the case of `Nc1nccc(Oc2ccc(NC(=O)NC(=O)Cc3ccc(F)cc3)cc2F)c1C#Cc1ccccn1`, the IC50 against Cytochrome P450 3A4 was 37000 nM; in data set [1], 40 nM; in data set [2], 5 nM. This compound also yielded a Rate of metabolism in data set [3] of 0.042 nmol/min/mg. Besides, the AUC(0-t) at 8 h in data set [4] was 85 µM·h. Further, the peak level in [5] (Cmax) was 16 µM. Also, the Stability with Liver microsomes is 0 nmol/min/mg. In [6], the time of peak concentration (Tmax) amounted to 4 h. Further, the fraction unbound in data set [7] is 0.0002. Moreover, in data set [8], the inhibition in vivo at 50 mg/kg was less than 50%.

Turning to `O=C(CC(=O)Nc1ccc(Oc2ccnc3[nH]ccc23)c(F)c1)Nc1ccc(F)cc1`, the IC50 was determined as 1060 nM in data set [1] and 64 nM in data set [2].

Turning to `O=C(Cc1ccc(F)cc1)NC(=O)Nc1ccc(Oc2ccnc3[nH]cc(C(=O)NCc4cccnc4)c23)c(F)c1`, the IC50 in [1] turned out to be 650 nM; in data set [2] it was 11 nM.

With `Nc1nc(-c2c[nH]c3nccc(Oc4ccc(NC(=O)NC(=O)Cc5ccc(F)cc5)cc4F)c23)cs1`, the values for the IC50 in data set [1] and in data set [2] were 30 nM and 7 nM, respectively.

With `C#Cc1c(Oc2ccc(NC(=O)NC(=O)Cc3ccc(F)cc3)cc2F)ccnc1N`, the IC50 on Cytochrome P450 3A4 was found to be 800 nM; in [1], 40 nM; in data set [2], 2 nM.

For `O=C(Cc1ccc(F)cc1)NC(=O)Nc1ccc(Oc2ccnc3[nH]cc(C(=O)CN4CCC(O)C4)c23)c(F)c1` (stereo not drawn), the IC50 was 1470 nM in [1] and 19 nM in data set [2].

As for `O=C(Cc1ccc(F)cc1)NC(=O)Nc1ccc(Oc2ccnc3[nH]ccc23)c(F)c1`, in [3], the Rate of metabolism was 0.035 nmol/min/mg. The same compound gave a Cmax in data set [5] of 2.4 µM. Moreover, the IC50 was 150 nM in data set [1] and 110 nM in data set [2]. Further, in the data set with Liver microsomes, the Stability amounted to 0.015 nmol/min/mg. The Tmax in [6] was 4 h. Besides, the AUC(0-t) at 4 h in [9] came to 6 µM·h.

On to `CN1CCN(CC(=O)c2c[nH]c3nccc(Oc4ccc(NC(=O)NC(=O)Cc5ccc(F)cc5)cc4F)c23)CC1`, for which the IC50 in data set [1] amounted to 2220 nM; in data set [2] it was 11 nM.

`O=C(Cc1ccc(F)cc1)NC(=O)Nc1ccc(Oc2ccnc3[nH]cc(-c4cccnc4)c23)c(F)c1`: the Rate of metabolism in data set [3] is 0.049 nmol/min/mg. The compound further yielded an AUC(0-t) at 8 h in [4] of 34 µM·h. In [5], this compound gave a Cmax of 6 µM. The figures for the IC50 in data set [1] and in data set [2] were 20 nM and 2 nM, respectively. In the data set on Liver microsomes, this compound returned a Stability of 0.038 nmol/min/mg. Moreover, in data set [10], the inhibition in vivo at 100 mg/kg was found to be 88%. Besides, in [6], the Tmax amounted to 4 h. Further, in data set [8], the inhibition in vivo at 50 mg/kg turned out to be 67%.

Regarding `CN(C)CC#Cc1c(Oc2ccc(NC(=O)NC(=O)Cc3ccc(F)cc3)cc2F)ccnc1N`, the values for the IC50 (against Cytochrome P450 3A4; in data set [1]; in data set [2]) were 2700 nM, 220 nM and 4 nM, respectively.

As for `O=C(Cc1ccc(F)cc1)NC(=O)Nc1ccc(Oc2ccnc3[nH]c(-c4cccnc4)cc23)c(F)c1`, the Rate of metabolism in data set [3] was found to be 0.036 nmol/min/mg. In data set [4], this compound gave an AUC(0-t) at 8 h of 11.4 µM·h. Besides, in data set [5], the Cmax was found to be 2.1 µM. The IC50 in data set [1] came to 30 nM; in data set [2], 2 nM. Moreover, the Stability in the data set with Liver microsomes came to 0.016 nmol/min/mg. Further, the Tmax in [6] was determined as 4 h.

In the case of `NCC#Cc1c(Oc2ccc(NC(=O)NC(=O)Cc3ccc(F)cc3)cc2F)ccnc1N`, the results for the IC50 (against Cytochrome P450 3A4; in data set [1]; in [2]) were 1800 nM, 250 nM and 5 nM, respectively.

In [3], `Nc1cc(Oc2ccc(NC(=O)NC(=O)Cc3ccc(F)cc3)cc2F)ccn1` returned a Rate of metabolism of 0.018 nmol/min/mg. In data set [11], the inhibition in vivo at 125 mg/kg worked out at 98%. Also, the inhibition in vivo at 25 mg/kg in data set [12] is less than 50%. Besides, in data set [5], the concentration peaked (Cmax) at 10.5 µM. Further, the inhibition in vivo at 75 mg/kg in data set [13] turned out to be 80%. Moreover, the figures for the IC50 in data set [1] and in [2] were 290 nM and 35 nM, respectively. The compound also had a Stability in the data set on Liver microsomes of 0 nmol/min/mg. Besides, the Tmax in data set [6] came to 4 h. Further, the AUC(0-t) at 4 h in data set [9] came out at 33 µM·h.
